Key:
Assay type in all cases: biochemical
FAAH = molecular target: T1, FAAH (Mus musculus, UniProt O08914); assay: In vitro competitive activity-based protein profiling (mouse), FAAH gel band; settings: for inhibition at 1 µM: read-out: FAAH % inh. 1 μM
T1 construct: Proteomes (mouse brain membrane fraction or cell lysates); from tissue; host or cells: mouse brain membrane fraction (or cell lysates)
T1 sequence (O08914 1-579): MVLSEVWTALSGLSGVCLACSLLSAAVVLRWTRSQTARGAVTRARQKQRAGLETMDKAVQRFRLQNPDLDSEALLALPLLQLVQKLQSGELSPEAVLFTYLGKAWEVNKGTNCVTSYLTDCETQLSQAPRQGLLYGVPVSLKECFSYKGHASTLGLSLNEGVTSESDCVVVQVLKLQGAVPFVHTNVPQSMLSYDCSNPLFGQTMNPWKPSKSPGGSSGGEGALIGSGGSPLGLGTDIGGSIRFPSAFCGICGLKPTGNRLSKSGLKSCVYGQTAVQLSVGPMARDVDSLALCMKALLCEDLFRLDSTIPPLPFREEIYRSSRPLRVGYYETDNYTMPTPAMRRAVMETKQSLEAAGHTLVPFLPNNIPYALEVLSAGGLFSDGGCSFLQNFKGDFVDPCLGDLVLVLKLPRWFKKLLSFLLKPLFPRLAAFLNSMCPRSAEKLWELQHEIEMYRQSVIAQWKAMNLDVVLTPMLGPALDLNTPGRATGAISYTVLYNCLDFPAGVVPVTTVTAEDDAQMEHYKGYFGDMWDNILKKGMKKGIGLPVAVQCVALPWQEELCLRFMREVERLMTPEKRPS
How it was run: (§1)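 Residual enzyme activity is taken from in-gel fluorescence after SDS-PAGE. Proteome from mouse brain membranes or cell lysates (total protein 1.0 mg/mL) sees inhibitor for 30 min, then FP-Rh or HT-01 probe (50 μM DMSO stock) for 30 min, both steps at 37 °C.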

MAGL [1] = molecular target: T2, MAGL (Mus musculus, UniProt O35678); assay: In vitro competitive activity-based protein profiling (mouse), MAGL gel band; settings: for inhibition at 1 µM: read-out: MAGL % inh. 1 μM
T2 construct: Proteomes (mouse brain membrane fraction or cell lysates); from tissue; host or cells: mouse brain membrane fraction (or cell lysates)
T2 sequence (O35678 1-303): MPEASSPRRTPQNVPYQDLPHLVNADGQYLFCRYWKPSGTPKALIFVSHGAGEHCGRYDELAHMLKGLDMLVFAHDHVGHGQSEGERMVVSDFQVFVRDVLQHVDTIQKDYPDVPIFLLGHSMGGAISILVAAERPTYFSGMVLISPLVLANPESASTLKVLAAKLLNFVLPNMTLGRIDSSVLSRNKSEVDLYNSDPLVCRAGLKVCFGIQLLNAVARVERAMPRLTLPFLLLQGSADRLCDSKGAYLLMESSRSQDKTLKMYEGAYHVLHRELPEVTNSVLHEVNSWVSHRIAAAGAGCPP
How it was run: as §1

MAGL [2] = molecular target: T3, MAGL (Homo sapiens, UniProt Q99685); assay: In vitro competitive activity-based protein profiling (human), MAGL gel band
T3 construct: Proteomes (human prefrontal cortex or cell membrane fractions); from tissue; host or cells: human prefrontal cortex (or cell membrane fractions)
T3 sequence (Q99685 1-303): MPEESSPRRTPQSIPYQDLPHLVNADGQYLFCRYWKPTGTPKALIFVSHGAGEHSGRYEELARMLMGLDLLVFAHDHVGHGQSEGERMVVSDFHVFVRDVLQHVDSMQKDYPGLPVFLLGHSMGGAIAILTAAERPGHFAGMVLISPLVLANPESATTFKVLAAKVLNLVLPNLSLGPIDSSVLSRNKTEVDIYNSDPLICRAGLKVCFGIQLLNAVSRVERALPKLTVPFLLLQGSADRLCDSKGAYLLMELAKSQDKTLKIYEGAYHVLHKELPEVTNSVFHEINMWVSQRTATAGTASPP
Procedure: In Vitro Competitive Activity-Based Protein Profiling (Human).
Proteomes (human prefrontal cortex or cell membrane fractions) (50 μL, 1.0-2.0 mg/mL total protein concentration) were preincubated with varying concentrations of inhibitors at 37° C. After 30 min, FP-Rh or JW912 (1.0 μL, 50 μM in DMSO) was added and the mixture was incubated for another 30 min at room temperature. Reactions were quenched with SDS loading buffer (15 μL—4×) and run on SDS-PAGE. Following gel imaging, serine hydrolase activity was determined by measuring fluorescent intensity of gel bands corresponding to MAGL using ImageJ 1.49k software.

Row | SMILES | inhibition at 1 µM (FAAH) [%] | inhibition at 1 µM (MAGL [1]) [%] | IC50 (MAGL [2]) [nM] | IC50 (FAAH; mouse) [µM] | IC50 (MAGL [1]; mouse) [nM]
1 | CS(=O)(=O)Nc1ccn(C(=O)N2CCN(Cc3ccc(C(F)(F)F)cc3N3CCC(C(N)=O)CC3)CC2)n1 [Example 250, 1-(2-((4-(3-(methylsulfonamido)-1H-pyrazole-1-carbonyl)piperazin-1-yl)methyl)-5-(trifluoromethyl)phenyl)piperidine-4-carboxamide] | 0 to 25 | ≥ 75 | ≤ 100 |  | 
2 | CC1CCCN1c1cc(C(F)(F)F)ccc1CN1CCN(C(=O)n2ccc(NS(C)(=O)=O)n2)CC1 (centres unmarked) [Example 189, N-(1-(4-(2-(2-methylpyrrolidin-1-yl)-4-(trifluoromethyl)benzyl)piperazine-1-carbonyl)-1H-pyrazol-3-yl) methanesulfonamide] | 0 to 25 | ≥ 75 | ≤ 100 |  | 
3 | CS(=O)(=O)Nc1ccn(C(=O)N2CCN(Cc3ccc(Cl)c(N4CC[C@H](O)C4)c3)CC2)n1 [Example 292, (S)-N-(1-(4-(4-chloro-3-(3-hydroxypyrrolidin-1-yl)benzyl)piperazine-1-carbonyl)-1H-pyrazol-3-yl) methanesulfonamide] | 0 to 25 | ≥ 75 | ≤ 100 |  | 
4 | CS(=O)(=O)Nc1ccn(C(=O)N2CCN(Cc3ccc(C(F)(F)F)cc3N3CCC(S(C)(=O)=O)CC3)CC2)n1 [Example 209, N-(1-(4-(2-(4-(methylsulfonyl)piperidin-1-yl)-4-(trifluoromethyl)benzyl)piperazine-1-carbonyl)-1H-pyrazol-3-yl) methanesulfonamide] | 0 to 25 | ≥ 75 | ≤ 100 |  | 

More lines, now with the values ahead:

Row | inhibition at 1 µM (FAAH) [%] | inhibition at 1 µM (MAGL [1]) [%] | IC50 (MAGL [2]) [nM] | IC50 (FAAH; mouse) [µM] | IC50 (MAGL [1]; mouse) [nM] | SMILES
5 | 0 to 25 | ≥ 75 | ≤ 100 |  |  | CC(=O)N1CC2(CCN(c3cc(C(F)(F)F)ccc3CN3CCN(C(=O)n4ccc(NS(C)(=O)=O)n4)CC3)CC2)C1 [Example 228, N-(1-(4-(2-(2-acetyl-2,7-diazaspiro[3.5]nonan-7-yl)-4-(trifluoromethyl)benzyl)piperazine-1-carbonyl)-1H-pyrazol-3-yl) methanesulfonamide]
6 | 0 to 25 | ≥ 75 | ≤ 100 |  |  | CS(=O)(=O)Nc1ccn(C(=O)N2CCN(Cc3ccc(C(F)(F)F)cc3N3CCC4(CC3)CCN(S(C)(=O)=O)C4)CC2)n1 [Example 234, N-(1-(4-(2-(2-(methylsulfonyl)-2,8-diazaspiro[4.5]decan-8-yl)-4-(trifluoromethyl)benzyl)piperazine-1-carbonyl)-1H-pyrazol-3-yl) methanesulfonamide]
7 | 0 to 25 | ≥ 75 | ≤ 100 |  |  | CS(=O)(=O)Nc1ccn(C(=O)N2CCN(Cc3ccc(C(F)(F)F)cc3N3CCN(C(=O)CO)CC3)CC2)n1 [Example 116, N-(1-(4-(2-(4-(2-hydroxyacetyl)piperazin-1-yl)-4-(trifluoromethyl)benzyl)piperazine-1-carbonyl)-1H-pyrazol-3-yl)methanesulfonamide]
8 | 0 to 25 | ≥ 75 | ≤ 100 |  |  | CS(=O)(=O)Nc1ccn(C(=O)N2CCN(Cc3ccc(Cl)c(N4CCCCC4)c3)CC2)n1 [Example 236, N-(1-(4-(4-chloro-3-(piperidin-1-yl)benzyl)piperazine-1-carbonyl)-1H-pyrazol-3-yl) methanesulfonamide]
9 | 0 to 25 | ≥ 75 | ≤ 100 |  |  | C#Cc1ccc(CN2CCN(C(=O)n3ccc(NC(C)=O)n3)CC2)cc1 [Example 210, N-(1-(4-(4-ethynylbenzyl)piperazine-1-carbonyl)-1H-pyrazol-3-yl) acetamide]
10 | 0 to 25 | ≥ 75 | ≤ 100 | 1 to 10 | 100 to 1000 | Cc1ccc(CN2CCN(C(=O)n3ccc(NS(C)(=O)=O)n3)CC2)c(N2CCCC2)c1 [Example 137, N-(1-(4-(4-methyl-2-(pyrrolidin-1-yl)benzyl)piperazine-1-carbonyl)-1H-pyrazol-3-yl) methanesulfonamide]

Reference: patent US10519134B2, “Pyrazole compounds and methods of making and using same” (Lundbeck La Jolla Research Center, Inc., priority 2015, dated 2019)
